ChEMBL document CHEMBL5360534, “Synthetic α-glucosidase inhibitors as promising anti-diabetic agents: Recent developments and future challenges” (Eur J Med Chem, 2023)

Target: T1, Alpha-glucosidase (Saccharomyces cerevisiae S288c, UniProt P53341+P38158+P07265)
Experiment: Inhibition of Saccharomyces cerevisiae alpha-glucosidase
Assay type: protein assay

SMILES | IC50 [µM]
Cc1cc2nc(NC(=O)CN3C(=O)S/C(=C\c4ccc(Cl)cc4)C3=O)sc2cc1C | 29.91
O=C(N/N=C\c1ccccc1OCCCN1C(=O)c2ccccc2C1=O)c1cc2ccccc2oc1=O | 85.2
Clc1ccc(/C=N/Nc2nnc(-c3ccccc3)c(-c3ccccc3)n2)cc1 | 13.09

The next lines start with the values.

IC50 [µM] | SMILES
24.77 | O=c1cc(-c2ccc(OCc3cn(Cc4ccc(Cl)cc4)nn3)cc2)oc2ccccc12
94.2 | O=C(COc1ccc2ccc(=O)oc2c1)N/N=C\c1cc([N+](=O)[O-])ccc1OCCCN1C(=O)c2ccccc2C1=O
24.37 | O=c1cc(-c2ccc(OCc3cn(Cc4cc(Cl)ccc4Cl)nn3)cc2)oc2ccccc12

Target: T1, Alpha-glucosidase
Experiment: Competitive inhibition of Saccharomyces cerevisiae alpha-glucosidase using pNPG as substrate assessed as inhibition constant preincubated for 15 mins followed by substrate addition and measured after 20 mins by spectrophotometric analysis
Assay type: protein assay

SMILES | Ki [µM]
Cc1ccc(-c2nc3c(C(=O)Nc4ccccc4)c(Nc4ccccc4)nn3c(-c3ccc(Br)cc3)c2N)cc1 | 12
O=C(Cn1c(-c2ccc(Cl)cc2)nc2ccccc2c1=O)N/N=C/c1cn(-c2ccccc2)nc1-c1ccc(Br)cc1 | 56
Cc1ccc(C(c2c(N)c3ccccc3oc2=O)c2c(N)c3ccccc3oc2=O)cc1 | 22.4

Further lines, results first:

Ki [µM] | SMILES
87 | Cc1ccc(-n2cc(/C=N/NC(=O)Nc3ccccc3)c(-c3ccc([N+](=O)[O-])cc3)n2)cc1
86.3 | O=C(COc1ccc(-c2nc(-c3ccccc3)c(-c3ccccc3)[nH]2)cc1)Nc1cccc(Br)c1

Target: T1, Alpha-glucosidase
Experiment: Inhibition of Saccharomyces cerevisiae alpha-glucosidase using p-nitrophenyl-alpha-D-glucopyranoside as substrate preincubated for 5 mins followed by alpha-glucosidase addition and measured after 15 mins by UV-visible spectrophotometric analysis
Assay type: protein assay

IC50 [µM] | SMILES
3.2 | O=C(NNS(=O)(=O)c1ccccc1F)c1cc2cc(F)ccc2[nH]1
7.4 | O=C(NNS(=O)(=O)c1cccc(Cl)c1)c1cc2cc(F)ccc2[nH]1
4.7 | O=C(NNS(=O)(=O)c1ccc(Br)cc1)c1cc2cc(F)ccc2[nH]1
6.2 | N#Cc1ccc(S(=O)(=O)NNC(=O)c2cc3cc(F)ccc3[nH]2)cc1
11.02 | O=C(c1ccccc1)c1ccc2nc(-c3ccc(O)cc3)[nH]c2c1
3.2 | O=C(NNS(=O)(=O)c1cccc(F)c1)c1cc2cc(F)ccc2[nH]1

Target: T1, Alpha-glucosidase
Experiment: Inhibition of Saccharomyces cerevisiae alpha-glucosidase using p-nitrophenyl-alpha-D-glucopyranoside as substrate preincubated for 10 mins followed by substrate addition and measured after 30 mins by absorbance based analysis
Assay type: protein assay

IC50 [µM] | SMILES
2.78 | O=c1oc2ccccc2cc1-c1nn(-c2ccccc2)cc1-c1nc(-c2ccccc2)c(-c2ccccc2)[nH]1
0.95 | N#Cc1ccc2[nH]c(-c3nnc(Nc4ccc(Cl)c(Cl)c4)s3)cc2c1
2.53 | O=c1oc2ccc(Br)cc2cc1-c1nn(-c2ccccc2)cc1-c1nc(-c2ccccc2)c(-c2ccccc2)n1-c1ccc(Cl)cc1

Target: not listed separately
Experiment: Inhibition of alpha-glucosidase (unknown origin) using p-nitrophenyl-alpha-D-glucopyranoside as substrate preincubated for 5 mins followed by substrate addition and measured after 5 mins by spectrophotometric analysis
Design: species or system Homo sapiens

SMILES | IC50 [µM]
Nc1nnc(-c2ccc(O)cc2)s1 | 2.7
O=S(=O)(NCCc1c[nH]c2ccccc12)c1cc(F)ccc1Cl | 1.6

Other lines, results leading:

IC50 [µM] | SMILES
2.3 | Oc1ccc(/C=N/c2nnc(-c3ccc(Cl)cc3)s2)cc1
2.2 | COc1ccc(/C(CSc2nc3ccccc3[nH]2)=N/N=C/c2ccc(OC)cc2O)cc1

Target: T1, Alpha-glucosidase
Experiment: Inhibition of Saccharomyces cerevisiae alpha-glucosidase using pNPG as substrate preincubated for 10 mins followed by substrate addition and measured after 20 mins by spectrophotometric analysis
Assay type: protein assay

SMILES | IC50 [µM]
Fc1ccc(C2=NOC(c3ccccc3)N2c2ccc(F)cc2)cc1 (configuration not stated) | 256
Cc1ccc(C(c2c(N)c3ccccc3oc2=O)c2c(N)c3ccccc3oc2=O)cc1 | 20
O=C(CSC(=S)Nc1cccc([N+](=O)[O-])c1)c1cc2ccccc2oc1=O | 85

Second part, the compound after the results:

IC50 [µM] | SMILES
295 | COc1ccc(C2=NOC(c3ccccc3)N2c2ccc(OC)cc2)cc1 (configuration not stated)
13 | O=C1Cc2ccccc2C(O)C1C(c1ccc(OCc2cn(Cc3ccccc3Cl)nn2)cc1)c1c(O)c2ccccc2oc1=O (configuration not stated)
90 | O=C(COc1ccc(-c2nc(-c3ccccc3)c(-c3ccccc3)[nH]2)cc1)Nc1cccc(Br)c1
16.4 | Cc1ccccc1Cn1cc(COc2ccc(C(c3c(O)c4ccccc4oc3=O)C3C(=O)Cc4ccccc4C3O)cc2)nn1 (configuration not stated)

Target: T1, Alpha-glucosidase
Experiment: Inhibition of Saccharomyces cerevisiae alpha-glucosidase using p-nitrophenyl glucopyranoside as substrate preincubated for 10 mins followed by substrate addition and measured after 20 mins by spectrophotometric analysis
Assay type: protein assay

SMILES | IC50 [µM]
Nc1c(-c2ccccc2)nc2nc3cc(Cl)c(Cl)cc3n2c1-c1ccccc1 | 16.4
Cc1ccc(-c2nc3c(C(=O)Nc4ccccc4)c(Nc4ccccc4)nn3c(-c3ccc(Br)cc3)c2N)cc1 | 15.2
O=C(Cn1c(-c2ccc(Cl)cc2)nc2ccccc2c1=O)N/N=C/c1cn(-c2ccccc2)nc1-c1ccc(Br)cc1 | 60.5

Now from value to compound:

IC50 [µM] | SMILES
40.7 | COc1cccc2cc(-c3nnc(SCc4cn(CC(=O)NCc5ccc(F)cc5)nn4)o3)oc12
65.1 | Cc1ccc(-n2cc(/C=N/NC(=O)Nc3ccccc3)c(-c3ccc([N+](=O)[O-])cc3)n2)cc1
45.3 | O=C(Cn1cc(COc2ccc(-c3nc4ccccc4c(=O)[nH]3)cc2)nn1)Nc1ccccc1
192.3 | COc1ccc(CCn2c(SCc3cn(Cc4ccc(Br)cc4)nn3)nc3ccccc3c2=O)cc1OC
95 | CCOC(=O)c1c(-c2ccccc2)nn2c1C=C(c1ccc(O)c(OC)c1)/C2=N/C1CCCCC1

Target: not listed separately
Experiment: Inhibition of alpha-glucosidase (unknown origin)
Design: species or system Homo sapiens

SMILES | IC50 [µM]
Cc1cc([N+](=O)[O-])ccc1-c1cnc(CC(C)C)s1 | 7.17
CCOC(=O)CN1C(=O)/C(=N\NC(=O)c2ccccc2Cl)c2ccccc21 | 13.2
OCCN1C[C@H](O)[C@@H](O)[C@H](O)[C@H]1CO [MIGLITOL] | 0.39
CCn1cc(C(=O)OCc2ccccc2Br)c(=O)c2cc(F)c(N3CCN(Cc4ccccc4Br)CC3)nc21 | 45.8
CCOC(=O)C1=C(C)NC2=C(C(=O)CC(C)(C)C2)C1c1cc(OC)c(OC)cc1Br (configuration not stated) | 2.31
O=C(NNS(=O)(=O)c1ccccc1Cl)c1ccc(-c2nnc(-c3ccc([N+](=O)[O-])cc3)o2)cc1 | 1.1
Nc1ccc2c(-c3nc4ccc(Br)c(O)c4s3)cc(=O)oc2c1 | 6.32
CCOP(=O)(OCC)C(Nc1ccc(C(F)(F)F)cc1I)c1cc(OC)c(O)c(OC)c1 (configuration not stated) | 94.5
Nc1nnc(-c2cccc3cccc(O)c23)o1 | 0.8
O=C1C(=O)N(Cc2cn(CN3C(=O)S/C(=C\c4ccco4)C3=O)nn2)c2ccccc21 | 24.7
Cc1ccc(-c2cc(C(F)(F)F)nn2-c2ccc(S(=O)(=O)NC(=O)c3ccc(C)c([N+](=O)[O-])c3)cc2)cc1 | 92.3
OC[C@H]1CC2C(N=NN2c2ccccc2)[C@@H](O)C1O (some centres not stated) | 74
OC[C@H]1NC[C@H](O)[C@@H](O)[C@@H]1O [DUVOGLUSTAT] | 426

Results, then the compound that gave them:

IC50 [µM] | SMILES
8.15 | COc1cc(OC)c(Br)c(-c2nc3ccc(Br)cc3[nH]2)c1
1.02 | Cc1ccoc1-c1cccc(/C=N/NC(=O)c2ccc(-c3cc(=O)c4cc(O)ccc4o3)cc2)c1
0.91 | CCOC(=O)c1c(-c2ccc(/C=C3/SC(=S)NC3=O)cc2)c2ccccc2n1Cc1ccccc1
5.3 | CCOC(=O)c1c(-c2ccc(/C=C3/SC(=O)NC3=O)cc2)c2ccccc2n1Cc1ccccc1
2.5 | O=[N+]([O-])c1ccccc1/C(CSc1nnc2c(n1)[nH]c1ccccc12)=N\c1nnc(-c2cccc(O)c2)s1
4.54 | Fc1ccc(-c2cn3c(Cc4n[nH]c(=S)n4-c4cccc5ccccc45)csc3n2)cc1
28 | COc1cccc(/C=C/c2nc(-c3ccccc3)c3cc(Cl)ccc3n2)c1OS(=O)(=O)c1ccc([N+](=O)[O-])cc1
85 | O=C(CSc1nc2ccccc2c(=O)n1-c1cccc(Br)c1)c1ccc([N+](=O)[O-])cc1
3.05 | CC(C)Cc1ccc(C(C)c2nnc(SC/C(=N\c3ccc(Cl)c(Cl)c3)c3ccccc3)o2)cc1 (configuration not stated)
14.5 | CCOC(=O)CN1C(=O)/C(=N\NC(=O)c2ccc(Cl)cc2)c2ccccc21
118 | Cc1cccc(-n2c(-c3ccc(Cl)cc3)cc(C(=O)Nc3ccncc3)c2C)c1
60.5 | O=C(N/N=C/c1ccc(Cl)cc1)c1cc(-c2ccccc2)[nH]n1
0.5 | Oc1c(Cl)cc(Cl)cc1/C=N/c1nc(-c2ccc(-c3ccccc3)cc2)cs1
1.49 | OCCSc1nnc(COc2ccccc2)n1/N=C/c1ccc(O)cc1
4.3 | O=C(CC(c1cc(Cl)ccc1Cl)c1c[nH]c2ccccc12)c1ccccc1 (configuration not stated)
3.6 | CCOC(=O)c1c(-c2ccc(/C=C3/SC(=O)NC3=O)cc2)c2ccccc2n1Cc1ccc(Cl)cc1
6.3 | COc1ccc(-c2coc3cc(OCC(=O)c4ccc(Cl)cc4)ccc3c2=O)cc1
32 | O=[N+]([O-])c1ccc(S(=O)(=O)Oc2ccc(/C=C/c3nc4ccccc4nc3O)cc2)cc1
610 | COc1ccc(-n2c(SCC(=O)N/N=C/c3ccc(Cl)cc3)nc3ccccc3c2=O)cc1
1.49 | CN(C)c1ccc(-c2ccc(/C=N/n3c(COc4ccccc4)nnc3SCCO)cc2)cc1
1.49 | COc1ccc(/C=N/n2c(COc3ccccc3)nnc2SCCO)cc1
0.51 | CCOC(=O)c1c(-c2ccc(/C=C3/SC(=S)NC3=O)cc2)c2ccccc2n1Cc1ccc(Cl)cc1

Organism: Homo sapiens
Experiment: Potency index, ratio of acarbose IC50 to test compound IC50 for inhibition of alpha-glucosidase (unknown origin)

Ratio IC50 | SMILES
2 | CCOC(=O)CN1C(=O)/C(=N\NC(=O)c2ccccc2Cl)c2ccccc21
15 | O=[N+]([O-])c1ccccc1/C(CSc1nnc2c(n1)[nH]c1ccccc12)=N\c1nnc(-c2cccc(O)c2)s1
47 | Fc1ccc(-c2cn3c(Cc4n[nH]c(=S)n4-c4cccc5ccccc45)csc3n2)cc1
2 | CCOC(=O)CN1C(=O)/C(=N\NC(=O)c2ccc(Cl)cc2)c2ccccc21

Target: not listed separately
Experiment: Inhibition of alpha-glucosidase (unknown origin) using p-NPG as substrate preincubated for 5 mins followed by substrate addition and measured after 30 mins by absorbance based analysis
Design: species or system Homo sapiens

IC50 [µM] | SMILES
0.09 | COc1ccccc1N1C(=O)/C(=C\c2ccc(F)cc2)S/C1=N\NC(=O)c1cc2ccccc2oc1=O
0.07 | O=c1oc2ccccc2cc1-c1nn(C(Nc2ccccc2Oc2ccccc2NC(c2cccc(Br)c2)n2nc(-c3cc4ccccc4oc3=O)oc2=O)c2cccc(Br)c2)c(=O)o1 (configuration not stated)

Target: Alpha-glucosidase (Saccharomyces cerevisiae S288c) (UniProt P53341+P38158+P07265)
Experiment: Potency index, ratio of acarbose IC50 to test compound IC50 for inhibition of Saccharomyces cerevisiae alpha-glucosidase
Assay type: protein assay

Ratio IC50 | SMILES
35 | O=c1cc(-c2ccc(OCc3cn(Cc4ccc(Cl)cc4)nn3)cc2)oc2ccccc12
35 | O=c1cc(-c2ccc(OCc3cn(Cc4cc(Cl)ccc4Cl)nn3)cc2)oc2ccccc12

Target: not listed separately
Experiment: Inhibition of Saccharomyces cerevisiae alpha-glucosidase type I using p-nitrophenyl-alpha-D-glucopyranoside as substrate preincubated for 10 mins followed by substrate addition and measured after 30 mins by spectrophotometric analysis

IC50 [µM] | SMILES
12.7 | O=c1c2ccccc2n2ncnc2n1OCc1ccccc1
28.5 | CCn1c(=O)c2ccccc2n2ncnc12
45.6 | C/C=C/n1c(=O)c2ccccc2n2ncnc12
83.9 | CS(=O)(=O)n1c(=O)c2ccccc2n2ncnc12
72.3 | CSn1c(=O)c2ccccc2n2ncnc12

Target: T1, Alpha-glucosidase
Experiment: Inhibition of Saccharomyces cerevisiae alpha-glucosidase using p-nitrophenyl-alpha-D-glucopyranoside as substrate preincubated for 15 mins followed by substrate addition and measured after 30 mins by spectrophotometric analysis
Assay type: protein assay

IC50 [µM] | SMILES
5.98 | O=C1Nc2ccccc2C1(c1cn(Cc2ccccc2F)c2ccccc12)c1cn(Cc2ccccc2F)c2ccccc12
2.85 | COc1ccc(-c2csc(NC(=O)CSc3nnc(-c4ccc(Br)cc4)c(-c4ccc(Br)cc4)n3)n2)cc1
19.6 | Cc1ccc(-c2cc(-c3ccc(Br)cc3)nc(SCc3ccc(Cl)cc3)n2)cc1
20.7 | CC(C)(C)c1ccc(Cn2cc(CCS3=Nc4cc(Cl)ccc4C3)nn2)cc1 (configuration not stated)
12.8 | CC(=O)CC(c1ccc(Br)cc1)C(C(=O)Nc1ccccn1)C(=O)Nc1ccccn1 (configuration not stated)
